We go through one compound from EPA's ToxValDB 9.5 (doi:10.2903/j.efsa.2006.85r).

One data set concerns Typhlodromus pyri. The data set can be described thus: LR50; higher = less toxic. The note with it: not reported; mortality.
The test system of the next data set is Pimephales promelas. Conditions: chronic/long-term; duration: 34 days; growth.
A further data set relates to Apis mellifera. The note with it: acute; duration: 48 hours; oral; unspecified; mortality.
The subject of the next data set is Daphnia magna. The note with it: chronic/long-term; duration: 21 days.
The subject of a further data set is Lepomis macrochirus. The note with it: acute; duration: 96 hours; mortality.
Another data set deals with Tagia sp. Conditions: acute; duration: 14 days; mortality.
In the next data set the test system is Canidae. Conditions: oral, Dog Other, clinical chemistry.

The NOAEL is the highest dose or exposure tested at which no adverse effect was seen.

≈ marks a conversion by molar mass, not a printed value.

For the compound `CCOP(=S)(OCC)Oc1cc(C)nc(C(C)C)n1` [Diazinon], in the data set with Typhlodromus pyri, the LR50 was 0.153 g/ha. In addition, the NOAEL in the data set with Rattus norvegicus (acute, oral, clinical chemistry) amounted to 2.5 mg/kg-day; with Canidae (chronic, duration: 52 weeks), 0.02 mg/kg-day; with Canidae (subchronic, duration: 90 days) it was 0.02 mg/kg-day. For the same compound, the LD50 in the data set with Rattus norvegicus (acute, oral, mortality) is 1130 mg/kg-day; in the data set with Apis mellifera, 0.09 µg/piece; in the data set with Anas platyrhynchos (acute, oral, unspecified, mortality), 1.44 mg/kg. Moreover, the NOEC in the data set on Rattus norvegicus (reproduction developmental, reproduction) was found to be 0.65 mg/kg-day; in the data set with Pimephales promelas it was 0.092 mg/L; in the data set with Daphnia magna, 0.00017 mg/L. For the same compound, the LC50 came out at 0.27 µg/mL (≈ 0.887 µM) in the data set with Lepomis macrochirus; 65 mg/kg in the data set with Tagia sp.; 8 mg/kg-day with Anas platyrhynchos (short-term, duration: 8 days, oral, feed, mortality). For the same compound, the values for the NOEL in the data set with Tagia sp. and in the data set with Anas platyrhynchos (reproductive) were 6.15 mg/kg and 1.2 mg/kg-day, respectively.
